Laboratory results as given in patent US20170143009A1, “ANIMAL FEED AND AQUAFEED” (DUPONT NUTRITION BIOSCIENCES APS, priority 2014, published 2017).

How the values were obtained:
[1] = pure form; water and lower alcohols; cited from earlier work
Pacific white shrimp = test: 8-week feeding trial, growth performance and feed utilisation; type: in vivo, Litopennaeus vannamei; conditions: 8 weeks; for Final individual body weight gain: 5 replicates
Description: The feeding experiment (8 weeks) on Pacific white shrimp was conducted at the shrimp farm facilities of Prince of Songkhla University, Pattani Campus in Thailand. The shrimp rearing unit was made up of fiberglass aquarium of 235 L. The parameters to assess the water quality i.e. salinity, dissolved oxygen (DO), temperature and pH were measured daily using standard protocols. There was a weekly monitoring of NH3 and NO2. Siphoning of left-over feed and faeces and exchange of 10% of water was done daily.
Pacific white leg shrimp (Litopennaeus vannamei) were obtained from a standard farm in Pattani province. Shrimp were acclimatized in a concrete pond for 7 days prior to the start of the experiment. It was ensured that the juveniles were not infested with bacteria, parasites and viruses. […] They were sorted and allotted randomly for a particular feed group. 30 shrimps were introduced into each of the 235 L fibreglass aquarium (5 aquariums per feed group). It was confirmed that there was no significant difference in the initial weights of the groups. They were grown in the system for 8 weeks.
Experimental shrimp feeds were used.
In the present study, positive control was based on 9% fish meal whereas negative control with or without betaine products) was based on 4% fish meal as indicated in the feed formulation in table 2.
The experimental feeds were hand fed everyday; four times a day. Feed consumption as well as amount of unconsumed feed were monitored (weighed) daily.
Daily feed was based on feed guide x number of surviving animals, and was predetermined one week in advance, but was adjusted on a daily basis if significant amount of feed remained non eaten or if all feed was consumed, in order to avoid underfeeding or overfeeding. The animals were weighed every 2 weeks—all animals in each of the aquaria were weighed.
The bulk weights of shrimp were recorded from each experimental unit at the start of the feeding period. Weight measurement was examined every two weeks by sampling 10% of white shrimp in each net cage (at week 2, 4, 6, and 8). At the end of the study (8 weeks), all shrimp in each net cage were weighed. The number of survivors was also checked. The determination of weight gain was based on the total biomass in each net cage considering the number of survivors.
Survival (%)=100 (Final shrimp number/Initial shrimp number)
Weight gain, WG (%)=[[(Mean final bodyweight)−(Mean initial body weight)]/Mean initial body weight]×100.
Rate of feed intake (%/BW/day)=Feed intake (g)×100/[((mean final BW+mean initial BW)/2)×((number of final shrimp+number of initial shrimp)/2)×time (days)].
Feed conversion ratio, FCR=Dry feed intake (g)/[Final biomass (g)−Initial biomass (g)+Biomass of the dead shrimp (g)].

[2] = NC feed (4% fish meal) + 0.5% uncoated betaine
[3] = NC feed (4% fish meal) + 1% uncoated betaine

C[N+](C)(C)CC(=O)[O-] [Uncoated Betafin, trimethylglycine]
Solubility [1]: readily soluble in water and lower alcohols
Final individual body weight gain (Pacific white shrimp; NC feed (4% fish meal) + 0.5% uncoated betaine (5 kg/tonne of feed)): 5.58 ± 0.29ab g/shrimp
FCR (feed conversion ratio) (Pacific white shrimp; [2]): 1.83 ± 0.09a
Feed intake (Pacific white shrimp; [2]): 7.60 ± 0.51b
Survival (Pacific white shrimp; [2]): 95.8 ± 4.2abcd %
Final individual body weight gain (Pacific white shrimp; NC feed (4% fish meal) + 1% uncoated betaine (10 kg/tonne of feed)): 6.06 ± 0.82a g/shrimp
FCR (feed conversion ratio) (Pacific white shrimp; [3]): 1.85 ± 0.21a
Feed intake (Pacific white shrimp; [3]): 8.46 ± 0.48a
Survival (Pacific white shrimp; [3]): 95.0 ± 3.3abcd %
Feed intake (Pacific white shrimp; NC feed (4% fish meal) + 1% uncoated betaine, listed as betaine): significantly higher than positive control
